# Experimental data: patent US20170056524A1, “COMPOSITIONS AND METHODS FOR TARGETED EPIGENETIC MODIFICATION” (THE TRUSTEES OF THE UNIVERSITY OF PENNSYLVANIA, priority 2014, published 2017)
# Entries after “also recorded” stand apart in the source; their conditions may differ.
# Experiments:
# H3K27me3 = H3K27me3 ChIP-Seq of whole human islets cultured in the absence or presence of Adox; type: cell-based
# Procedure: Chromatin immunoprecipitation and preparation of ChIP-Seq libraries was performed on individual cell sorts for each cell type and donor (H3K4me3: Abcam 8580, H3K27me3: Upstate 07-449).
# Libraries for H3K4me3, H3K27me3, and input were sequenced on an Illumina GA-IIx to 36 bp. Reads were aligned to hg18 using ELAND. Up to two mismatches were allowed and only reads with a best alignment to a single location were used for further analysis. Enrichment of H3K4me3 was performed on individual donors and cell types using GLITR (FDR=5%) (32) and a pool of human input from various tissues. GLITR was also run on islet cell input samples and any peaks identified in the inputs were filtered from the H3K4me3 enriched regions. Enriched regions in the H3K27me3 data were identified using the program STAR (33) with a sliding window of 5,000 bp, step size of 1,000 bp, and a FDR=0.5%. To ensure fair comparison, H3K4me3 and H3K27me3 profiles from CD4-positive T-cells (23) were determined using the same algorithms and settings.
# (§1) Human islets and islets from GlucagonCre; Rosa26EYFP bigenic mice (Herrera et al., 2000; Srinivas et al., 2001) were cultured, treated with 50μM adenosine dialdehyde (Adox, Sigma A7154) for 72 h, FACS sorted as described previously (11), or prepared for immunostaining.
# The high incidence of bivalent marks in α-cells, the interesting bivalent pattern of β-cell and α-cell-specific transcription factors in α-cells, and the large overlap with bivalently-marked transcriptional regulators in hESC raised the likelihood that epigenomic manipulations could be exploited to reprogram human α-cells towards the β-cell phenotype. Several drugs, such as adenosine dialdehyde (Adox) and 3-Deazaneplanocin A (DZNep) interfere with histone methylation (24). The general histone methyltransferase inhibitor Adox, which amongst others decreases H3K27me3 levels (24), was employed to test whether modulation of the histone methylation status of human pancreatic islets could promote reprogramming. […]
# human islets = assay: Immunofluorescent confocal analysis of Adox-treated human islets; type: cell-based
# Procedure: as §1
# Immunofluorescent confocal analysis was performed as described previously (Gao et al., Genes Dev. 2010, Jun. 15, 24(12): 1295-305). Sections were blocked with CAS-Block (Invitrogen, 00-8120) and stained using guinea pig anti-insulin 1:500 (Abcam, ab7842), rabbit anti-glucagon 1:250 (Santa Cruz, sc13091), guinea-pig anti-Pdx1 1:1000 (gift from Dr. C. Wright), mouse anti-E-Cadherin 1:500 (BD Transduction Laboratories, 610181), goat anti-GFP (Abcam, ab6673), guinea pig Cy2, guinea pig Cy5, rabbit Cy3, mouse Cy2, mouse Cy5, goat Cy3 (1:500, Jackson-Immunoresearch) antibodies. For quantification of double PDX1+/GCG+ cells, Pdx1-, Glucagon-, E-Cadherin and DAPI staining were performed on untreated (control) and Adox-treated islets. All glucagon-positive cells and all double PDX1+/GCG+ cells were counted manually (8 slides) in each condition and the percentage of PDX1+/GCG+ double-positive cells of all glucagon-positive cells was calculated.
# human β-cells = assay: RNA-Seq of FACS-sorted β-cells from Adox-treated human islets; type: cell-based; conditions: Adox-treated β-cells (Adox-β/α vs β/α ratio)
# Procedure: (§2) After total RNA extraction (see above), RNA-Seq libraries were prepared from sorted alpha, beta, and exocrine cells. The detailed protocol can be found on http://ngsc.med.upenn.edu (Lab protocol, Library preparation for RNA-Seq from total RNA). Libraries were single-end sequenced to 100 bp on an Illumina hiSeq2000. Reads from ribosomal RNA and genomic repeats were identified by aligning the 5′ 50 bp of each read to ribosomal sequences and the human repeats in RepBase (version 14.10) using Bowtie (Langmead B., Curr. Protoc. Bioinformatics. 201, December Chapter 11: Unit 117) and allowing for up to three mismatches. The remaining reads were processed with RUM (Grant et al., Bioinformatics 2011. Sep. 15, 27(18): 2518-28) and aligned to the set of known transcripts included in RefSeq, UCSC known genes, and ENSEMBL transcripts, and the human genome (hg18, NCBI build 36.1). Transcript-, exon-, and intron-level quantification was done using only the uniquely aligning reads. This process was repeated separately for each cell type and donor.
# (§3) To analyze global gene expression profiles from each sample, RNA-seq read counts aligning to exons of mRNA transcripts in RefSeq were extracted, and these values were normalized to total uniquely aligning reads and transcript length (RPKM). Data for individual genes was summarized by selecting a “representative transcript” with the highest RPKM value for each gene symbol (total=18,822 genes). Gene-level data was then quantile-normalized across all samples to remove bias from the variable expression levels of highly expressed genes, e.g., insulin, glucagon, and highly expressed ncRNAs, which dampen the relative signal of all other genes. Finally, quantile-normalized gene expression values were averaged together for samples of the same cell type to produce a single average gene profile for each cell type. These values were used for all subsequent analyses, including expression comparisons for individual genes of interest.
# as §1
# (§4) To investigate the transcriptional changes in Adox-treated human islets and confirm increased PDX1 expression, FACS analysis after Adox-treatment was performed using the same antibody panel as described above, followed by RNA-Seq analysis (n=2 treated α, n=2 treated β, technical replicates) and focused on cell-type-specific hormones and transcription factors. To assess whether Adox-treated β-cells become more α-cell like or vice versa, the ratio of expression levels in untreated β-cells and untreated α-cells (β/α) were first compared to the ratio in Adox-treated β-cells and untreated α-cells (Adox-β/α) (FIG. 6E). A decrease in NKX6-1 and MAFA levels, an increase in PDX1 levels and no change in insulin expression were found and no change in the expression levels of the α-cell specific genes glucagon or ARX were observed, giving no indication for a gain of α-cell identity. Second, the ratio of expression values in untreated α-cells and untreated β-cells (α/β) were compared to the ratio in Adox-treated α-cells and untreated β-cells (Adox-α/β) to elucidate whether Adox-treated α-cells become more ‘β-cell like’ (FIG. 6F).
# [1] = test system: islets from GlucagonCre; Rosa26EYFP mice; assay: Lineage tracing: immunostaining of Adox-treated islets from GlucagonCre; Rosa26EYFP mice; type: cell-based; conditions: mouse islets treated with Adox in vitro; not observed in control islets
# Procedure: as §1
# Immunofluorescent confocal analysis was performed as described previously (Gao et al., Genes Dev. 2010, Jun. 15, 24(12): 1295-305). […] For quantification of double PDX1+/GCG+ cells, Pdx1-, Glucagon-, E-Cadherin and DAPI staining were performed on untreated (control) and Adox-treated islets. All glucagon-positive cells and all double PDX1+/GCG+ cells were counted manually (8 slides) in each condition and the percentage of PDX1+/GCG+ double-positive cells of all glucagon-positive cells was calculated.
# A priori, the co-localization of glucagon with insulin could be due to α- to β-cell fate or β- to α-cell fate conversion. […] For this purpose, islets from GlucagonCre; Rosa26EYFP mice were treated, in which α-cells are permanently marked by yellow fluorescence protein (YFP) expression (27, 28) with Adox in vitro. […]
# human α-cells = assay: RNA-Seq of FACS-sorted α-cells from Adox-treated human islets; type: cell-based; conditions: Adox-treated α-cells (Adox-α/β vs α/β ratio)
# Procedure: as §2, §3, §1, §4
# [2] = test system: p16 TALE-DNMT (24-repeat TALE fused to DNMT3a-3L) (Xanthomonas TALE / DNMT3a-DNMT3L, engineered?); assay: cell_activity; conditions: HeLa transfection, 48 h, bisulfite sequencing, vs E752A mutant; up to 66.5% at individual CpGs
# [3] = test system: p16 jTALE-DNMT (18-repeat TALE fused to DNMT3a-3L) (Xanthomonas TALE / DNMT3a-DNMT3L, engineered?); assay: cell_activity; conditions: primary human fibroblasts, lentivirus, 4 days, vs mutant; p16 mRNA decreased about 50%; also active in HeLa and hCASMC
# [4] = whole human islets, 50μM Adox 72 h vs untreated
compound,measurement,setting,value
"Nc1ncnc2c1ncn2C(C=O)OC(C=O)CO (stereo not shown) [Adox, adenosine dialdehyde]",H3K4me3-enrichment (FIG. 9A legend),H3K27me3; human islets treated with Adox,decrease
same,H3K27me3 enrichment at genes carrying a bivalent or monovalent H3K27me3 mark in all pancreatic cell populations,H3K27me3; [4],strong decrease
same,"H3K27me3 enrichment at the ARX, MAFA and PDX1 loci",H3K27me3; [4],decrease; also recorded: decreased H3K27me3 levels
same,co-localization of glucagon and insulin granules within the same islet cell,"human islets; 50μM Adox 72 h, not seen in untreated islets",occasional co-occurrence of glucagon and insulin granules within the same islet cell; also recorded: co-localization of glucagon and insulin granules within the same cell; also recorded: co-localization of glucagon and insulin granules in pancreatic cells
same,PDX1 expression in glucagon-positive cells (PDX1+/GCG+ double-positive cells),human islets; 50μM Adox 72 h vs untreated,nuclear PDX1-expression in many glucagon-positive cells; also recorded: many double-positive cells
same,ARX expression level,human β-cells,no change
same,MAFA expression level,human β-cells,decrease
same,NKX6-1 expression level,human β-cells,decrease
same,glucagon (GCG) expression level,human β-cells,no change
same,insulin (INS) expression level,human β-cells,no change
same,insulin granules in YFP+ (lineage-labeled α) cells,[1],occurrence of insulin granules in YFP+ cells
same,ARX expression level,human α-cells,increase
same,MAFA expression level,human α-cells,slight decrease
same,NKX6-1 expression level,human α-cells,slight decrease
same,PDX1 expression level,human α-cells,increase
same,glucagon (GCG) expression level,human α-cells,no change
same,insulin (INS) expression level,human α-cells,no change
"CCTCCTTCCTTGCCAACGCTGGCT (double strand) [CDKN2A (p16) promoter TALE target, 24 bp]",activity (% average increase in CpG methylation),[2],17
"TCCTTGCCAACGCTGGCT (double strand) [CDKN2A (p16) promoter jTALE target, 18 bp]",activity (% average increase in CpG methylation),[3],10
